Earlier results in patent US20220308074A1, “QUANTIFICATION METHOD OF VITAMIN D DERIVATIVE, ENZYME FOR QUANTIFICATION, COMPOSITION FOR QUANTIFICATION, KIT FOR QUANTIFICATION, ELECTRODE, SENSOR CHIP, AND SENSOR” (KIKKOMAN CORPORATION, priority 2019, published 2022).
Like-named read-outs stand apart in the source and are kept apart here.

Substance | half-life in the blood (blood) | half-life in the blood (in vivo)
1,25-dihydroxyvitamin D | about 15 hours | –
25-hydroxyvitamin D | – | 2-3 weeks
